One assay has as its target T1, 5HT2B receptors (Homo sapiens, UniProt P41595).
T1 construct: expressed in transfected cells; host or cells: CHO-K1 cells
As to the kind of experiment: Human 5-HT2B functional high throughput screening assay in CHO-K1 cells (calcium flux). In kind it is cell-based. Particulars: for EC50: CHO-K1 cells, calcium flux; call rule not given here. Here is the method:
(§1) (iii) Human 5-HT2C and 5-HT2B Functional High Throughput Screening Assays in CHO-K1 Cells
(§2) CHO-K1 cells over-expressing 5HT2C or 5HT2B receptors were grown in 1272 cm^2 flasks to 70-80% confluency in UltraCHO media (Lonza, Walkersville, Md.) supplemented with 1% dialyzed fetal bovine serum (FBS), 250 μg/mL zeocin, 100 U/mL penicillin and 100 μg/mL streptomycin, and 400 μg/mL geneticin. The cells were dissociated from the flasks using 0.05% trypsin, resuspended in Recovery™ cell culture freezing medium (Invitrogen, Carlsbad, Calif.) and stored in liquid nitrogen until use. The calcium flux experiments were done using frozen cells. The cells were diluted in media containing 1% dialyzed FBS and 100 U/mL penicillin and 100 μg/mL streptomycin and plated into 384-well poly-D-Lysine coated plates (15,000 cells/well). Then the plates were incubated overnight in a cell incubator at 37° C., 5% CO2. On the next day, the growth media was replaced with media without FBS and further incubated overnight. On day three, the changes in intracellular Ca^2+ were determined using calcium sensitive fluorescent dye, Ca4 (MDS Analytical Technologies, Sunnyvale, Calif.) by loading 15 μL of diluted dye in Hank's Balanced Salt Solution and 20 mM Hepes buffer (pH 7.4) with final concentration of 2.5 mM probenecid into the cells containing media. Then the cells were incubated at room temperature for 60 minutes in dark.
(§3) After incubation, the cell plates were transferred to FLIPR™ (MDS) and their fluorescence measurements were read at an excitation wavelength of 480 nm and an emission wavelength of 530 nm at 25° C. The baseline fluorescence was measured for the first 10 seconds and then 15 μL of 4× concentration of serotonin/test compound was added to the cells. The fluorescence intensity was captured every second for the first 1 minute followed by every 5 seconds for an additional 2 minutes. The increase in fluorescent response by a test compound was normalized to the response of serotonin and used to determine agonist activity. The concentration response of compounds was done from a starting concentration of 10 μM, 1:10 dilution across 6 wells with a final dimethyl sulfoxide concentration of 0.2% and was fitted using a 4-parameter logistic equation. The concentration at which a compound exerts half its maximal effect was named as ‘effective concentration 50’ or ‘EC50’. Emax is the maximum functional response or efficacy expressed as a percentage relative to the effect of serotonin.
On the technique in general: Calcium assays in cells follow changes in intracellular calcium, usually with a dye or a luminescent sensor.

In another assay the target is T2, 5HT2C receptors (Homo sapiens, UniProt P28335).
T2 sequence (P28335 33-458): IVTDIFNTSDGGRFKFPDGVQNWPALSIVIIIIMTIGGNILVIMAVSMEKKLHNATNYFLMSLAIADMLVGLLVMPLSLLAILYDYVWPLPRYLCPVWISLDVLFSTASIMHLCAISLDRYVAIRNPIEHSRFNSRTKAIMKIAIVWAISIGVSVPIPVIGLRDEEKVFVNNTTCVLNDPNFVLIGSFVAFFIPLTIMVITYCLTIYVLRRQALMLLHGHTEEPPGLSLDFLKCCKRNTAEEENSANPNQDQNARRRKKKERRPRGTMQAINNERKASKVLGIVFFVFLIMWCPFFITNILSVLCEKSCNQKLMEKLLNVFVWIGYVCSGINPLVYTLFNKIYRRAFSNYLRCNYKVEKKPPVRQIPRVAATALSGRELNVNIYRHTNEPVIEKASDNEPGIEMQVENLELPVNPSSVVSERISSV
Briefly: Human 5-HT2C functional high throughput screening assay in CHO-K1 cells (calcium flux). In kind it is cell-based. On the set-up: expressed in transfected cells; host or cells: CHO-K1 cells. Particulars: for Emax: CHO-K1, 5-HT2C, maximum functional response as percentage relative to the effect of serotonin; for EC50: CHO-K1 cells, calcium flux. Here is the method: as §1, §2, §3

[1] abbreviates: 5-HT2B, maximum functional response as percentage relative to the effect of serotonin.
Where [2] appears, read: 5-HT2B agonist activity, read-out: EC50.
[3] abbreviates: 5-HT2C agonist activity, read-out: EC50.

Read-outs that look alike come from different tables or passages of the source. Bounds are passed on as bounds.

T1 sequence (P41595 whole entry): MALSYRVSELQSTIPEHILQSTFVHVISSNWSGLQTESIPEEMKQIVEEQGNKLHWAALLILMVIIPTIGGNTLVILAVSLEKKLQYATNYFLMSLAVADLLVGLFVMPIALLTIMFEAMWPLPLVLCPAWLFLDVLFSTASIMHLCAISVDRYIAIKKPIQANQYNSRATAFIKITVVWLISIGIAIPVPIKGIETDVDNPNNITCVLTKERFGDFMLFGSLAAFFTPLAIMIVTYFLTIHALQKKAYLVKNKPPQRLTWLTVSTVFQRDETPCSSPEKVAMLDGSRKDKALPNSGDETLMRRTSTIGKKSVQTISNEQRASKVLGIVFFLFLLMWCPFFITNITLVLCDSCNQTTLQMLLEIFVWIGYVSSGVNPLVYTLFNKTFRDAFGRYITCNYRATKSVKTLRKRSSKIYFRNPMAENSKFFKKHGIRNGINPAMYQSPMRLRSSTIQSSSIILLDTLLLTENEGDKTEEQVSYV

`O=C1NC[C@@H]2CNC[C@H]2c2ccc(OCCc3ccccc3)cc21` (relative stereo) [Example 123, Trans-8-phenethoxy-1,2,3,3a,4,5-hexahydrobenzo[e]pyrrolo[3,4-c]azepin-6(10bH)-one]: the values for the Emax result at 5HT2B receptors (setting [1]) and on 5HT2C receptors were “inactive” and 120%, respectively. For the same compound, the EC50 (in general, the concentration at which the effect is half-maximal) on 5HT2B receptors (EC50, 5-HT2B agonist activity) was more than 10000 nM; at 5HT2C receptors (EC50, 5-HT2C agonist activity), 10 nM.

Turning to `CC(C)c1cccc(-c2ccc3c(c2)C(=O)NC[C@@H]2CN(C)C[C@@H]32)c1` (relative stereo) [Example 379, Trans-8-(3-isopropylphenyl)-2-methyl-2,3,3a,4,5,10b-hexahydropyrrolo[3,4-d][2]benzazepin-6(1H)-one], the EC50 on 5HT2B receptors (setting [2]) was more than 10000 nM; at 5HT2C receptors (setting [3]), 5 nM. In addition, the figures for the Emax entry on 5HT2B receptors (setting [1]) and at 5HT2C receptors (read-out: Emax) were “inactive” and 100%, respectively.

With `CN1C[C@H]2CNC(=O)c3cc(-c4ccc5nonc5c4)ccc3[C@@H]2C1` (relative stereo) [Example 195, Trans-8-(benzo[c][1,2,5]oxadiazol-5-yl)-2-methyl-1,2,3,3a,4,5-hexahydrobenzo[e]pyrrolo[3,4-c]azepin-6(10bH)-one], the EC50 at 5HT2B receptors (setting [2]) is more than 10000 nM; on 5HT2C receptors (setting [3]), 10 nM. Moreover, the Emax (usually the maximal effect, on the per cent scale that the assay sets) was “inactive” at 5HT2B receptors (setting [1]) and more than 120% on 5HT2C receptors (read-out: Emax).

`COc1ccc2c(c1)C(=O)N(C)C[C@@H]1CNC[C@@H]21` (relative stereo) [Example 188, Trans-8-methoxy-5-methyl-1,2,3,3a,4,5-hexahydrobenzo[e]pyrrolo[3,4-c]azepin-6(10bH)-one]: the Emax at 5HT2B receptors (CHO-K1) was 90%; on 5HT2C receptors it was more than 120%. In addition, the EC50 at 5HT2B receptors (EC50, 5-HT2B agonist activity) is 1000 nM; at 5HT2C receptors (EC50, 5-HT2C agonist activity), 60 nM.

`CN1C[C@H]2CNC(=O)c3cc(C4=CCOCC4)ccc3[C@@H]2C1` (relative stereo) [Example 242, Trans-8-(3,6-dihydro-2H-pyran-4-yl)-2-methyl-1,2,3,3a,4,5-hexahydrobenzo[c]pyrrolo[3,4-e]azepin-6(10bH)-one]: the EC50 on 5HT2B receptors (setting [2]) is more than 10000 nM; on 5HT2C receptors (setting [3]) it was 200 nM. For the same compound, the Emax entry at 5HT2B receptors (setting [1]) is “inactive”; at 5HT2C receptors (read-out: Emax), more than 120%.

For `COc1cccc2c1[C@H]1CNC[C@@H]1CCO2` (relative stereo) [Example 272, Trans-10-methoxy-2,3,3a,4,5,10b-hexahydro-1H-[1]benzoxepino[4,5-c]pyrrole], the Emax at 5HT2B receptors (CHO-K1) is 20%; at 5HT2C receptors, more than 120%. Further, the EC50 came out at 200 nM at 5HT2B receptors (EC50, 5-HT2B agonist activity) and 7 nM on 5HT2C receptors (EC50, 5-HT2C agonist activity).

Turning to `Oc1cccc2c1[C@H]1CNC[C@@H]1CCO2` (relative stereo) [Example 374, Trans-2,3,3a,4,5,10b-hexahydro-1H-[1]benzoxepino[4,5-c]pyrrol-10-ol], the results for the Emax at 5HT2B receptors (CHO-K1) and at 5HT2C receptors were 30% and 90%, respectively. The EC50 at 5HT2B receptors (EC50, 5-HT2B agonist activity) worked out at 700 nM; at 5HT2C receptors (EC50, 5-HT2C agonist activity), 80 nM.

Turning to `c1ccc(-c2cccc3c2OCC[C@H]2CNC[C@H]32)cc1` (relative stereo) [Example 397, Trans-7-phenyl-2,3,3a,4,5,10b-hexahydro-1H-[1]benzoxepino[4,5-c]pyrrole], the EC50 is more than 10000 nM at 5HT2B receptors (setting [2]) and 5 nM at 5HT2C receptors (setting [3]). For the same compound, the Emax result at 5HT2B receptors (setting [1]) is “inactive”; on 5HT2C receptors (read-out: Emax) it was 95%.

For `C[C@H](Cc1ccccc1)Oc1ccc2c(c1)C(=O)NC[C@H]1CNC[C@H]21` [Example 181, (3aR,10bS)-8-((R)-1-Phenylpropan-2-yloxy)-1,2,3,3a,4,5-hexahydrobenzo[e]pyrrolo[3,4-c]azepin-6(10bH)-one], the EC50 on 5HT2B receptors (setting [2]) is more than 10000 nM; at 5HT2C receptors (setting [3]), 10 nM. In addition, the Emax result at 5HT2B receptors (setting [1]) is “inactive”; on 5HT2C receptors (read-out: Emax), more than 120%.

As to `CN1C[C@H]2CNC(=O)c3cc(-c4ccc5ccccc5c4)ccc3[C@@H]2C1` (relative stereo) [Example 80, Trans-2-methyl-8-(naphthalen-2-yl)-1,2,3,3a,4,5-hexahydrobenzo[e]pyrrolo[3,4-c]azepin-6(10bH)-one], the 50% effective concentration (EC50) at 5HT2B receptors (setting [2]) is more than 10000 nM; on 5HT2C receptors (setting [3]) it was 22 nM. The Emax entry was “inactive” on 5HT2B receptors (setting [1]) and more than 120% at 5HT2C receptors (read-out: Emax).

In the case of `O=C1NC[C@@H]2CNC[C@H]2c2ccc(-c3ccncc3)cc21` (relative stereo) [Example 177, Trans-8-(pyridin-4-yl)-1,2,3,3a,4,5-hexahydrobenzo[e]pyrrolo[3,4-c]azepin-6(10bH)-one], the values for the Emax result at 5HT2B receptors (setting [1]) and on 5HT2C receptors were “inactive” and more than 120%, respectively. Also, the EC50 was more than 10000 nM at 5HT2B receptors (EC50, 5-HT2B agonist activity) and 100 nM at 5HT2C receptors (EC50, 5-HT2C agonist activity).

As for `Fc1ccc2c(c1)[C@H]1CNC[C@@H]1CCO2` (relative stereo) [Example 286, Trans-9-fluoro-2,3,3a,4,5,10b-hexahydro-1H-[1]benzoxepino[4,5-c]pyrrole], the Emax on 5HT2B receptors (CHO-K1) was 60%; at 5HT2C receptors, 90%. Also, the EC50 at 5HT2B receptors (EC50, 5-HT2B agonist activity) was 50 nM; on 5HT2C receptors (EC50, 5-HT2C agonist activity), 300 nM.

Take `O=C1C[C@@H]2CN(Cc3ccccc3)C[C@H]2c2ccccc2N1` (relative stereo) [Example 222, Trans-2-benzyl-1,2,3,3a,4,10b-hexahydrobenzo[b]pyrrolo[3,4-d]azepin-5(6H)-one]: the concentration giving a half-maximal response (EC50) was more than 10000 nM on 5HT2B receptors (setting [2]) and 400 nM on 5HT2C receptors (setting [3]). For the same compound, the Emax result was “inactive” at 5HT2B receptors (setting [1]) and more than 120% at 5HT2C receptors (read-out: Emax).

Take `CN1C[C@H]2CNC(=O)c3c(F)cccc3[C@@H]2C1` (relative stereo) [Example 92, Trans-7-fluoro-2-methyl-1,2,3,3a,4,5-hexahydrobenzo[e]pyrrolo[3,4-c]azepin-6(10bH)-one]: the Emax on 5HT2B receptors (CHO-K1) is 34%; at 5HT2C receptors it was more than 120%. Besides, the EC50 worked out at 1350 nM at 5HT2B receptors (EC50, 5-HT2B agonist activity) and 56 nM on 5HT2C receptors (EC50, 5-HT2C agonist activity).

On to `O=C1NC[C@@H]2CN(Cc3ccccc3)C[C@H]2c2sccc21` (relative stereo) [Example 101, Trans-8-benzyl-6,6a,7,8,9,9a-hexahydropyrrolo[3,4-e]thieno[3,2-c]azepin-4(5H)-one], for which the EC50 at 5HT2B receptors (setting [2]) is more than 10000 nM; on 5HT2C receptors (setting [3]) it was 400 nM. Also, the figures for the Emax result at 5HT2B receptors (setting [1]) and at 5HT2C receptors (read-out: Emax) were “inactive” and more than 120%, respectively.

As for `C[C@H](O)c1cc(-c2ccc3c(c2)C(=O)NC[C@H]2CN(C)C[C@H]32)ccc1F` (single isomer, unassigned) [Example 352], the EC50 on 5HT2B receptors (setting [2]) is more than 10000 nM; at 5HT2C receptors (setting [3]), 0.4 nM. Moreover, the results for the Emax entry on 5HT2B receptors (setting [1]) and at 5HT2C receptors (read-out: Emax) were “inactive” and 105%, respectively.

Take `CN1C[C@@H]2CNC(=O)c3cc(OCc4c(F)ccc(F)c4F)ccc3[C@H]2C1` [Example 213, (3aS,10bS)-2-Methyl-8-(2,3,6-trifluorobenzyloxy)-1,2,3,3a,4,5-hexahydrobenzo[e]pyrrolo[3,4-c]azepin-6(10bH)-one]: the EC50 was more than 10000 nM at 5HT2B receptors (setting [2]) and 1 nM at 5HT2C receptors (setting [3]). Also, the Emax entry at 5HT2B receptors (setting [1]) is “inactive”; at 5HT2C receptors (read-out: Emax), more than 120%.

With `CC(=O)c1cccc(-c2ccc3c(c2)C(=O)NC[C@@H]2CNC[C@@H]32)c1.Cl` (relative stereo) [Example 236, Trans-8-(3-acetylphenyl)-1,2,3,3a,4,5-hexahydrobenzo[c]pyrrolo[3,4-e]azepin-6(10bH)-one hydrochloride], the figures for the concentration giving a half-maximal response (EC50) at 5HT2B receptors (setting [2]) and on 5HT2C receptors (setting [3]) were more than 10000 nM and 0.3 nM, respectively. Moreover, the maximal response (Emax) result at 5HT2B receptors (setting [1]) was “inactive”; at 5HT2C receptors it was more than 120%.

The values above are taken from US8846951B2 (AbbVie Inc., priority 2009, dated 2014).
